Type in all cases: functional
For assay [1], the system named is Nephotettix cincticeps. The assay can be described thus: Insecticidal activity against Nephotettix cincticeps (green rice leafhopper) grown on booting stage rice plant stems assessed as insect mortality measured 48 hr post compound treatment by leaf-dip method.
Assay [2] deals with Mythimna separata. Nature of the assay: Insecticidal activity against Mythimna separata(Oriental armyworm) second-instar larvae infested on compound pre-treated corn leaves assessed as insect mortality measured 48 hr post compound treatment by leaf-dip method.
Assay [3] relates to Aphis craccivora. The assay can be described thus: Insecticidal activity against Aphis craccivora (cowpea aphid) infested horsebean plant leaves assessed as insect mortality measured 24 hr post compound treatment by leaf-dip method.
For assay [4], the system named is Mythimna separata. The assay can be described thus: Insecticidal activity against Mythimna separata (Oriental armyworm) second-instar larvae infested on compound pre-treated corn leaves assessed as insect mortality at 500 mg/L measured 48 hr post compound treatment by leaf-dip method.
Assay [5] relates to Aphis craccivora. Nature of the assay: Insecticidal activity against Aphis craccivora (cowpea aphid) infested horsebean plant leaves assessed as insect mortality at 500 mg/L measured 24 hr post compound treatment by leaf-dip method.
Assay [6] relates to Laodelphax striatellus. Nature of the assay: Potency index, ratio of LC50 for imidacloprid to LC50 for test compound against Laodelphax striatella (small brown planthopper) grown on booting stage rice plant stems assessed as insect mortality measured 48 hr post compound treatment by leaf-dip method.
Assay [7] relates to Nephotettix cincticeps. Nature of the assay: Potency index, ratio of LC50 for imidacloprid to LC50 for test compound against Nephotettix cincticeps (green rice leafhopper) grown on booting stage rice plant stems assessed as insect mortality measured 48 hr post compound treatment by leaf-dip method.
The subject of assay [8] is Laodelphax striatellus. Nature of the assay: Insecticidal activity against Laodelphax striatella (small brown planthopper) grown on booting stage rice plant stems assessed as insect mortality measured 48 hr post compound treatment by leaf-dip method.

In general, LC50 refers to the concentration that kills 50% of the test population. Broadly, the mortality is the share of the test organisms that died.

As to `O=[N+]([O-])/C(=C\c1ccc([N+](=O)[O-])o1)C1=NCCN1Cc1ccc(Cl)nc1`, the LC50 in the assay with Nephotettix cincticeps [1] turned out to be 154 µM; with Mythimna separata [2], 69.5 µM; in the assay on Aphis craccivora [3], 11.1 µM. Also, the mortality at 500 µg/mL with Mythimna separata [4] and in the assay on Aphis craccivora [5] was 100% in each case.
As to `O=[N+]([O-])/C(=C\c1ccc[nH]1)C1=NCCN1Cc1ccc(Cl)nc1`, the LC50 in the assay on Mythimna separata [2] was found to be 39.7 µM; in the assay with Aphis craccivora [3], 11.2 µM. The mortality at 500 µg/mL in the assay on Mythimna separata [4] and in the assay on Aphis craccivora [5] was 100% in each case.
Consider `O=[N+]([O-])/C(=C\c1cccs1)C1=NCCCN1Cc1ccc(Cl)nc1`, for which the LC50 in the assay with Aphis craccivora [3] came out at 20.5 µM. Also, the mortality at 500 µg/mL was determined as 73.3% with Mythimna separata [4] and 100% in the assay on Aphis craccivora [5].
Regarding `O=[N+]([O-])/C(=C\c1cc(Br)cs1)C1=NCCN1Cc1ccc(Cl)nc1`, the mortality at 500 µg/mL in the assay on Mythimna separata [4] and in the assay on Aphis craccivora [5] was 0% throughout.
As to `O=[N+]([O-])/C(=C\c1ccc(Cl)o1)C1=NCCN1Cc1ccc(Cl)nc1`, the LC50 was found to be 37.6 µM with Mythimna separata [2] and 7.54 µM in the assay on Aphis craccivora [3]. The mortality at 500 µg/mL in the assay on Mythimna separata [4] and in the assay on Aphis craccivora [5] was 100% each time.
`O=[N+]([O-])/C(=C\c1ccco1)C1=NCCN1Cc1ccccc1`: the mortality at 500 µg/mL in the assay on Mythimna separata [4] is 46.6%; in the assay with Aphis craccivora [5], 0%.
Take `Cc1ccc(/C=C(/C2=NCCCN2Cc2ccc(Cl)nc2)[N+](=O)[O-])s1`: the median lethal concentration (LC50) in the assay with Aphis craccivora [3] came to 24.6 µM. The results for the mortality at 500 µg/mL in the assay on Mythimna separata [4] and in the assay with Aphis craccivora [5] were 63.3% and 100%, respectively.
Regarding `Cl.O=[N+]([O-])/C(=C\c1ccco1)C1=NCCN1Cc1ccc(Cl)nc1`, the LC50 with Nephotettix cincticeps [1] was determined as 1.3 µM; in the assay on Mythimna separata [2] it was 24.7 µM; with Aphis craccivora [3] it was 3.72 µM; in the assay with Laodelphax striatellus [8] it was 7.23 µM. The RatioLC50 in the assay with Laodelphax striatellus [6] came to 6.9; in the assay on Nephotettix cincticeps [7], 16. Besides, the mortality at 500 µg/mL in the assay on Mythimna separata [4] and in the assay with Aphis craccivora [5] was 100% in each case.
Consider `O=[N+]([O-])/C(=C\c1ccc(Br)o1)C1=NCCN1Cc1ccc(Cl)nc1`, for which the LC50 amounted to 2.54 µM with Nephotettix cincticeps [1], 39.7 µM with Mythimna separata [2] and 7.3 µM in the assay with Aphis craccivora [3]. Besides, the mortality at 500 µg/mL in the assay with Mythimna separata [4] and with Aphis craccivora [5] was 100% in each case.
On to `Cl.O=[N+]([O-])/C(=C\c1ccc(CO)o1)C1=NCCN1Cc1ccc(Cl)nc1`, for which the LC50 in the assay with Nephotettix cincticeps [1] was determined as 1.11 µM; with Mythimna separata [2] it was 33.9 µM; with Aphis craccivora [3], 10.6 µM. Also, in the assay with Nephotettix cincticeps [7], the RatioLC50 is given as 18.8. For the same molecule, the mortality at 500 µg/mL in the assay on Mythimna separata [4] and in the assay with Aphis craccivora [5] was 100% each time.
Regarding `O=[N+]([O-])/C(=C\c1ccco1)C1=NCCCN1Cc1ccc(Cl)nc1`, in the assay with Aphis craccivora [3], the 50% lethal concentration (LC50) is 76.4 µM. The mortality at 500 µg/mL was determined as 16.7% in the assay on Mythimna separata [4] and 100% in the assay with Aphis craccivora [5].
As to `Cc1ccc(/C=C(/C2=NCCN2Cc2ccc(Cl)nc2)[N+](=O)[O-])s1`, the LC50 in the assay on Mythimna separata [2] was determined as 29.7 µM; in the assay with Aphis craccivora [3], 3.11 µM. Moreover, the mortality at 500 µg/mL in the assay on Mythimna separata [4] and in the assay with Aphis craccivora [5] was 100% each time.
Consider `Cc1cc(/C=C(/C2=NCCN2Cc2ccc(Cl)nc2)[N+](=O)[O-])oc1C`, for which the LC50 in the assay with Aphis craccivora [3] is 4.65 µM. The mortality at 500 µg/mL in the assay on Mythimna separata [4] is 0%; in the assay on Aphis craccivora [5], 100%.
For the molecule `CCc1ccc(/C=C(/C2=NCCN2Cc2ccc(Cl)nc2)[N+](=O)[O-])o1`, the results for the LC50 with Mythimna separata [2] and in the assay with Aphis craccivora [3] were 97.9 µM and 1.82 µM, respectively. In addition, the mortality at 500 µg/mL in the assay on Mythimna separata [4] and in the assay with Aphis craccivora [5] was 100% in each case.
With `Cc1ccc(/C=C(/C2=NCCN2Cc2ccc(Cl)nc2)[N+](=O)[O-])o1`, the LC50 in the assay with Nephotettix cincticeps [1] is 4.05 µM; in the assay on Mythimna separata [2] it was 53.1 µM; with Aphis craccivora [3] it was 6.34 µM. Further, the mortality at 500 µg/mL in the assay on Mythimna separata [4] and with Aphis craccivora [5] was 100% throughout.
Consider `O=[N+]([O-])/C(=C\c1ccco1)C1=NCCN1Cc1cnc(Cl)s1`, for which the LC50 turned out to be 107 µM in the assay with Mythimna separata [2] and 3.5 µM in the assay on Aphis craccivora [3]. In addition, the mortality at 500 µg/mL with Mythimna separata [4] and in the assay with Aphis craccivora [5] was 100% throughout.
With `O=[N+]([O-])/C(=C\c1ccc(Cl)o1)C1=NCCCN1Cc1ccc(Cl)nc1`, the LC50 with Aphis craccivora [3] is 60.9 µM. The mortality at 500 µg/mL in the assay with Mythimna separata [4] came to 96.7%; in the assay on Aphis craccivora [5], 100%.
In the case of `O=[N+]([O-])/C(=C\c1ccoc1)C1=NCCN1Cc1ccc(Cl)nc1`, the LC50 in the assay with Mythimna separata [2] was 55.3 µM; in the assay with Aphis craccivora [3] it was 4.46 µM. Besides, the mortality at 500 µg/mL in the assay with Mythimna separata [4] and in the assay on Aphis craccivora [5] was 100% in each case.
For the molecule `Cl.O=[N+]([O-])/C(=C\c1cccs1)C1=NCCN1Cc1ccc(Cl)nc1`, the LC50 in the assay on Nephotettix cincticeps [1] is 1.22 µM; with Mythimna separata [2], 52.9 µM; in the assay on Aphis craccivora [3] it was 4.23 µM; in the assay with Laodelphax striatellus [8], 14 µM. Besides, the RatioLC50 with Laodelphax striatellus [6] is recorded as 3.6; with Nephotettix cincticeps [7], 17.1. Further, the mortality at 500 µg/mL in the assay on Mythimna separata [4] and with Aphis craccivora [5] was 100% in each case.
For the molecule `Cc1ccc(/C=C(/C2=NCCCN2Cc2ccc(Cl)nc2)[N+](=O)[O-])o1`, the LC50 in the assay on Aphis craccivora [3] is 698 µM. Further, the mortality at 500 µg/mL in the assay on Mythimna separata [4] worked out at 33.3%; in the assay on Aphis craccivora [5], 100%.
`O=[N+]([O-])/C(=C\c1ccco1)C1=NCCN1Cc1ccc(Cl)cc1`: in the assay on Aphis craccivora [3], the LC50 worked out at 234 µM. In addition, the values for the mortality at 500 µg/mL with Mythimna separata [4] and in the assay with Aphis craccivora [5] were 67.2% and 98%, respectively.
Take `O=[N+]([O-])/N=C1\NCCN1Cc1ccc(Cl)nc1` [IMIDACLOPRID]: the LC50 with Nephotettix cincticeps [1] amounted to 20.9 µM; with Aphis craccivora [3], 35 µM; in the assay with Laodelphax striatellus [8], 49.8 µM. In the assay on Aphis craccivora [5], the mortality at 500 µg/mL was 100%.
For `O=[N+]([O-])/C(=C\c1ccsc1)C1=NCCN1Cc1ccc(Cl)nc1`, the mortality at 500 µg/mL came out at 0% in the assay on Mythimna separata [4] and 31.9% in the assay with Aphis craccivora [5].

The record behind these values is ChEMBL document CHEMBL3046354, “Design, synthesis, and insecticidal activities of novel analogues of neonicotinoids: replacement of nitromethylene with nitroconjugated system” (2009).
